Patent publication US6719969B1, “Treatment of liver disease and injury with CXC chemokines” (The Regents of The University of Michigan, priority 1999, dated 2004)
“And” between values parts separate entries of the source, which are not always exact repeats. Equal entries are not always repeated. Where two headings read alike, the source gives them in different places.

How the values were obtained:
[1] = tested on: CD1 mice challenged with 400 mg/kg acetaminophen; assay: Acetaminophen-induced hepatic injury, mice fasted 12 h, treatment immediately or 10 h after challenge; format: in vivo, mouse; settings: for Liver injury (histology): treatment 10 h after acetaminophen, liver at 48 h; for Significant reduction of serum AST levels / Reduction of serum AST levels: AST at 48 h; for Reduction of serum AST levels: NAC 100 ug, proteins 2 ug i.v.
Method: Female CD1 mice (6-8 wk of age) were purchased from Charles River Laboratories (Portage, Mich.) and maintained under specific pathogen-free conditions with free access to water and food prior to each study. Fresh suspensions of acetaminophen (Sigma Chemical Company, St. Louis, Mo.) were made daily by dissolving the compound in phosphate buffered saline (PBS) warmed to 40° C. In all studies, mice were allowed free access to water alone prior to an i.p. injection of 400 mg/kg acetaminophen (Manatou et al., 1996; incorporated herein by reference).
Protocol 2: In the second set of studies, mice were fasted for 12 h and received one of NAC, murine MIP-2, the human proteins ENA-78, IL-8, HGF or IP-10 either immediately or 10 h after acetaminophen challenge. […] Mice were injected i.v. with 100 μg of NAC or 2 μg of recombinant protein (ENA-78, IL-8, HGF or IP-10) dissolved in 0.5 ml of normal saline. All mice were subsequently sacrificed 48 h after acetaminophen challenge and serum and liver samples were removed.
Acute hepatocellular injury results in elevated levels of aspartate aminotransferase (AST). Serum levels of AST were determined 48 h after mice were challenged with acetaminophen by Clinical Pathology at the University of Michigan Medical School (Ann Arbor, Mich.) using standardized techniques.
For histological assessment of hepatic injury, liver tissues were fixed in 4% paraformaldehyde for 24 h prior to routine histological processing. A pathologist assessed hematoxylin and eosin stained slides from acetaminophen-challenged mice in a blinded manner. Separate scoring systems were devised to indicate the area of liver necrosis and hemorrhage, and the extent of hepatic inflammation. Detailed histological grading of hepatic injury including area of liver necrosis and hemorrhage was determined at 48 h after acetaminophen challenge. Hepatic inflammation was graded as absent, slight, moderate, or prominent.
The histological appearances of the livers from normal mice and mice that were challenged with acetaminophen and received saline or 2 μg of murine MIP-2, human ENA-78, human IL-8, human IP-10, human HGF or 100 μg of NAC were also analyzed. Mice were fasted for 12 h prior to i.p. injection with 400 mg/kg of acetaminophen, and then allowed free access to food. In these studies, saline, chemokines or NAC were given by i.v. injection 10 h after acetaminophen challenge, and liver was removed from each mouse for histological examination at the 48 h time point after acetaminophen.

[2] = tested on: normal murine liver cells (ATCC CRL-1638; NmuLi); assay: Cultured liver cell proliferation after acetaminophen, [3H]thymidine incorporation; format: cell-based, mouse; settings: for Proliferation of liver cells exposed to acetaminophen for 24 h: 2.5 mg/ml acetaminophen; for Proliferation of liver cells exposed to PBS: NAC 1 mM, cytokines 1 ng/ml, no acetaminophen
Method: The effects of chemokines, NAC and HGF on hepatocyte proliferation after a 24 h acetaminophen challenge were examined using normal murine liver cells obtained from American Type Culture Collection (ATCC CRL-1638; NmuLi). Hepatocytes were plated at a density of 1.0×10^5 cells/well in 6-well tissue culture plates, and were deprived of fetal bovine serum supplementation for 36 h prior to an study. Fasted hepatocytes were subsequently exposed to 2.5 mg/ml of acetaminophen and were left untreated or treated with one of NAC, MIP-2, ENA-78, IL-8, IP-10 or HGF. NAC at 1 mM or individual cytokines at 1 ng/ml were added either immediately or 10 h after the addition of acetaminophen.
In additional in vitro studies, normal serum or anti-CXCR2 antibody was also included in cultures of treated or untreated hepatocytes exposed to PBS or acetaminophen. Ten μCi of [^3H]thymidine was added to each well for the final 4 h of culture, and 24 h after the addition of acetaminophen suspensions of hepatocytes were prepared via cell lysis with 0.5% (v/v) Triton-X100. [^3H]thymidine incorporation was assessed by liquid scintillation counting on a Beckman counter (Beckman Instruments, Fullerton, Calif.).

[3] = tested on: CD1 mice challenged with 400 mg/kg acetaminophen; assay: Acetaminophen challenge in mice fasted 24 h, MIP-2 or NAC treatment; format: in vivo, mouse
Method: Protocol 3: In the next set of studies, mice were fasted for 24 h and received MIP-2 (2 μg) or NAC (100 μg) via an i.v. injection either immediately or 10 h after acetaminophen challenge, and liver and serum samples were removed from surviving mice 48 h after acetaminophen challenge. Liver and serum samples from the experimental groups and from mice challenged with an i.p. injection of PBS and treated i.v. with normal saline were processed as described below.
The histological appearances of the livers from mice that were challenged with acetaminophen and received 100 μg of NAC or 2 μg of murine MIP-2 by i.v. injection, either immediately after or 10 h later, were also analyzed.

primary rat hepatocytes [4] = tested on: primary rat hepatocytes
Method: (§1) Adult male pathogen-free Sprague Dawley rats (Charles River, Portage, Mich.) weighing 300-350 gms. were used for isolation of hepatocytes by collagenase perfusion (Berry and Friend, 1969; Alpini et al., 1994; each incorporated herein by reference). Perfusion was performed via the portal vein after anesthesia was induced with intramuscular ketamine (100 mg/kg) and maintained with inhalation of methoxyflurane. […] The portal vein was then exposed and cannulated with a 16 gauge angiocatheter.
(§2) The liver was perfused with Hank's solution (calcium and magnesium free with 10 mM Hepes and 10^5 U/L of penicillin/streptomycin, pH 7.4 [Biowhittaker, Walkersville, Md.]) at 37° C. at a rate of 10 ml/min to flush the liver of intravascular blood. The liver was next perfused with a collagenase solution (0.5 mg/ml collagenase B [Boehringer Mannheim, Indianapolis, Ind.] in Dulbecco's Modified Eagle's Media/F12 [DMEM/F12 {Biowhittaker, Walkersville, Md.}] with 10^5 U/L penicillin/streptomycin) at 37° C. at a rate of 10 ml/min until there was evidence of tissue fracture beneath the liver capsule.
(§3) The liver was then gently removed from the animal, placed into a sterile petri dish containing additional collagenase solution, the liver capsule removed, and the tissue gently agitated to disperse the cells. […] Hepatocyte viability was generally 85-95% as determined by trypan blue exclusion. […]

[5] = tested on: CD-1 mice challenged with 400 mg/kg acetaminophen
neutrophils = settings: ELR motif introduced into PF-4; cited from earlier work
primary rat hepatocytes [6] = assay: Primary rat hepatocyte proliferation in vitro, 3H-thymidine incorporation; settings: 0.001-100 ng/ml, 24 h of incubation, vs media alone
Method: as §1, §2, §3

murine CXCR2 = target: T1, murine CXCR2 (Mus musculus, UniProt P35343); settings: Lee et al., 1995; cited from earlier work
T1 sequence (P35343 1-359): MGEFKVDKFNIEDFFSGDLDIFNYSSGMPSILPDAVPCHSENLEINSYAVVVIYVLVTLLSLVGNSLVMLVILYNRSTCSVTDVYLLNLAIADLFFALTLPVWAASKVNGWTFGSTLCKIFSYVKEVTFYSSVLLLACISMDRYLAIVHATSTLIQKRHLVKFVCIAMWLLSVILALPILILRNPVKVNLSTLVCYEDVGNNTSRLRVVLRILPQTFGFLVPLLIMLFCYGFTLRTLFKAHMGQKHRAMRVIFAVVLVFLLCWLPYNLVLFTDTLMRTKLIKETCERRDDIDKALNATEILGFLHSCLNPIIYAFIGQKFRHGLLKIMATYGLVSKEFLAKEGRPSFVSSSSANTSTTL

[7] = tested on: CD-1 mice challenged with 400 mg/kg acetaminophen; assay: Delayed MIP-2 therapy in acetaminophen-challenged mice: histology, BrdU, nuclear Western blot; format: in vivo, mouse
[8] = treatment delayed 10 h after acetaminophen
[9] = treatment immediately after acetaminophen
[10] = 24 h fast, treatment delayed 10 h
[11] = CD1 mice fasted 24 h, 400 mg/kg acetaminophen, 400 mg/kg

## CC(=O)N[C@@H](CS)C(=O)O [NAC, N-acetyl-cysteine]
[1]
  Liver injury (histology): Neither HGF nor 100 μg of NAC were effective
[1]; [8]
  Significant reduction of serum AST levels: no longer able to significantly reduced serum AST levels
[1]; [9]
  Reduction of serum AST levels: approximately 90%
[2]; treatment added 10 h later, vs PBS cultures
  Proliferation of liver cells exposed to acetaminophen for 24 h: significantly reduced liver cell proliferation
[2]; treatment added immediately
  Proliferation of liver cells exposed to acetaminophen for 24 h: maintained the proliferation
[2]
  Proliferation of liver cells exposed to PBS: did not alter the proliferation
[3]; [10]
  Liver histology: did not attenuate hepatic injury
[3]; 24 h fast, treatment immediately after acetaminophen
  Liver histology: effective
[3]; 24 h fast, treatment immediately after acetaminophen, 48 h
  Serum AST, NAC vs MIP-2: significantly lower levels of serum AST
[3]; CD1 mice fasted 24 h, 400 mg/kg acetaminophen, monitored 48 h, 400 mg/kg
  Percent survival, treatment Immediately After Acetaminophen: 90%
[3]; [11]
  Percent survival, treatment 10 h post Acetaminophen: 25% and 20%

## ENA-78: ELR-containing CXC chemokine, epithelial neutrophil activating protein-78; human recombinant protein
[1]
  Liver injury (histology): marked attenuation of liver injury
[1]; [8]
  Significant reduction of serum AST levels: significantly reduced serum AST levels
[1]; [9]
  Reduction of serum AST levels: approximately 50%
[2]; treatment added immediately
  Proliferation of liver cells exposed to acetaminophen for 24 h: prevented the drop in liver cell proliferation
[2]
  Proliferation of liver cells exposed to PBS: did not change the proliferation

## HGF: human hepatocyte growth factor, used as positive control [reference compound]
[1]
  Liver injury (histology): Neither HGF nor 100 μg of NAC were effective
[1]; [9]
  Significant reduction of serum AST levels: not
Primary rat hepatocytes [4]
  Hepatocyte proliferation (incorporation of 3H-thymidine): more significant
[2]
  Proliferation of liver cells exposed to PBS: did not change the proliferation

## IL-8: ELR-containing CXC chemokine, interleukin-8; human recombinant protein
[1]
  Liver injury (histology): marked attenuation of liver injury
[1]; [8]
  Significant reduction of serum AST levels: significantly reduced serum AST levels
[1]; [9]
  Reduction of serum AST levels: approximately 50%
[2]
  Proliferation of liver cells exposed to PBS: did not change the proliferation

## IP-10: non-ELR CXC chemokine, γ-interferon-inducible protein-10
[1]; [9]
  Significant reduction of serum AST levels: not
[5]; 1 ug i.v. 10 h after acetaminophen, 2 days after challenge
  Hepatic injury (histology): dramatically decreased hepatic injury
[5]; 8 hours after administration, vs saline
  Decrease in liver injury (serum ALT): approximately three-fold
[5]; 8 h post treatment
  Serum MIP-2 levels: almost three times the levels seen in control animals
[5]; 26 h and subsequent time points
  CXCR2 protein in liver (Western blot): high level of CXCR2 protein
[5]; mouse, in vivo
  CXCR2 protein on hepatocytes (immunohistochemistry): quite strong expression of CXCR2 protein
[2]; 1 ng/ml, vs control cultures with PBS
  Lowering of proliferation rate of liver cells exposed to PBS: 40%
[2]; treatment added immediately
  Proliferation of liver cells exposed to acetaminophen for 24 h: not further reduced

B1: PF-4: CXC chemokine lacking the ELR sequence (protein, UniProt P02776 32-101, looked up)
Platelet factor 4: EAEEDGDLQCLCVKTTSQVRPRHITSLEVIKAGPHCPTAQLIATLKNGRKICLDLQAPLYKKIIKKLLES
neutrophils
  Increase in neutrophil chemotactic properties: 1,000 fold

B2: MIP-2: ELR-containing CXC chemokine, macrophage inflammatory protein-2; recombinant murine protein (protein, UniProt P10889 28-100, looked up)
C-X-C motif chemokine 2: AVVASELRCQCLKTLPRVDFKNIQSLSVTPPGPHCAQTEVIATLKGGQKVCLDPEAPLVQKIIQKILNKGKAN
[1]
  Liver injury (histology): marked attenuation of liver injury
[1]; [8]
  Significant reduction of serum AST levels: significantly reduced serum AST levels
[1]; [9]
  Reduction of serum AST levels: approximately 50%
Primary rat hepatocytes [6]
  Hepatocyte proliferation (incorporation of 3H-thymidine): significant increase in hepatocyte proliferation
Murine CXCR2
  Affinity for murine CXCR2 relative to KC: ten-fold greater affinity
[2]; treatment added immediately
  Proliferation of liver cells exposed to acetaminophen for 24 h: prevented the drop in liver cell proliferation
[2]
  Proliferation of liver cells exposed to PBS: did not change the proliferation
[7]; 1 ug i.v. 10 h after acetaminophen
  Liver histology 2 days after injection: little evidence of liver injury
[7]; 8 h after treatment
  Nuclear expression of C/EBP-α: exhibited nuclear expression of the 48- and 42-kDa isoforms of C/EBP-α
[7]; 24 h after treatment, Western blot
  Nuclear cyclin D1 protein: markedly greater nuclear levels of cyclin D1 protein
[7]; 48 h after treatment
  BrdU-labeled hepatocytes, enhancement above control group: 10 fold
[7]; IL-6 knockout
  AST and ALT levels: dramatic decrease of AST and ALT levels
[7]; Western blot of liver nuclear extracts
  Nuclear expression of 38- and 35-kDa LAP of C/EBP-β: evident at 4 h after MIP-2 treatment
[7]; vs PBS
  Nuclear expression of STAT-3: strongly expressed at all times examined
[7]; vs controls
  IL-6 in serum or liver: never significantly elevated
[3]; [10]
  Liver histology: showed improvements
[3]; 24 h fast, treatment delayed 10 h, 48 h
  Serum AST, MIP-2 vs NAC: significantly lower levels of serum AST
[3]; [11]
  Percent survival, treatment 10 h post Acetaminophen: 60%

B3: KC: murine ELR-CXC chemokine with neutrophil chemotactic properties (protein, UniProt P12850 25-96, looked up)
Growth-regulated alpha protein: APIANELRCQCLQTMAGIHLKNIQSLKVLPSGPHCTQTEVIATLKNGREACLDPEAPLVQKIVQKMLKGVPK
Murine CXCR2
  Affinity for CXCR2, fold less than MIP-2: approximately 10 fold
